For data set [1], the system named is KM 12. The experiment in a line: NCI 60-cell screen. Format: cell-based, human. The settings on record: Homo sapiens, KM12, averaged, quadruplicate, upper limit 10^−5 M, read-out: negative log10 GI50 (converted).
In data set [2] the test system is SR. The experiment in a line: NCI 60-cell screen. In kind it is cell-based, human. The settings on record: Homo sapiens, averaged, quadruplicate, upper limit 10^−5 M, read-out: negative log10 GI50 (converted).
Data set [3] deals with MDA-MB-435. The data set is described as follows: NCI 60-cell screen. In kind it is cell-based, human. The settings on record: Homo sapiens, averaged, quadruplicate, upper limit 10^−5 M, read-out: negative log10 GI50 (converted).
Data set [4] has as its system DU-145 (Prostate). The experiment in a line: ASU-CRI minipanel of human cancer cell lines. Format: cell-based. The settings on record: Homo sapiens; Prostate DU-145; read-out: GI50. The source says: (§1) Individual cell line response values are provided in the Experimental.
In data set [5] the test system is SW-1736 (Thyroid ca). The data set is described as follows: ASU-CRI minipanel of human cancer cell lines. In kind it is cell-based. The settings on record: Thyroid ca SW-1736.
Source text: as §1

In data set [6] the test system is FADU (Pharynx-sq). The experiment in a line: ASU-CRI minipanel of human cancer cell lines. Format: cell-based.
Source text: as §1

The test system of data set [7] is NCI-H460 (Lung-NSC). The data set is described as follows: ASU-CRI minipanel of human cancer cell lines. Format: cell-based. Particulars: Homo sapiens, read-out: GI50.
Source text: as §1

In data set [8] the test system is SK-N-SH (Neuroblast). The experiment in a line: ASU-CRI minipanel of human cancer cell lines. Format: cell-based.
Source text: as §1

Data set [9] relates to BXPC-3 (Pancreas-a). The data set is described as follows: ASU-CRI minipanel of human cancer cell lines. Format: cell-based. Particulars: Homo sapiens; Pancreas-a BXPC-3; read-out: GI50.
Source text: as §1

For data set [10], the system named is KM20L2 (Colon). The data set is described as follows: ASU-CRI minipanel of human cancer cell lines. In kind it is cell-based. Particulars: Homo sapiens, KM-20L2, read-out: GI50.
Source text: as §1

Data set [11] concerns SF-295 (CNS). The experiment in a line: ASU-CRI minipanel of human cancer cell lines. Format: cell-based. The settings on record: Homo sapiens; CNS SF-295; read-out: GI50.
Source text: as §1

Data set [12] relates to OVCAR-3 (Ovarian). The data set is described as follows: ASU-CRI minipanel of human cancer cell lines. In kind it is cell-based. The settings on record: Homo sapiens; Ovarian OVCAR-3; read-out: GI50.
Source text: as §1

Data set [13] deals with Enterococcus faecalis (ATCC 29212). The experiment in a line: Antimicrobial disk diffusion. In kind it is cell-based. On the technique in general: In agar diffusion tests the substance spreads into inoculated agar from a disc or well.
Data set [14] has as its system MDA-MB-231/ATCC. The data set is described as follows: NCI 60-cell screen. Format: cell-based, human. The settings on record: Homo sapiens, averaged, quadruplicate, upper limit 10^−5 M, read-out: negative log10 GI50 (converted).
The test system of data set [15] is HOP-92. The data set is described as follows: NCI 60-cell screen. Format: cell-based, human. Particulars: Homo sapiens, averaged, quadruplicate, upper limit 10^−5 M, read-out: negative log10 GI50 (converted).
For data set [16], the system named is NCI 60-cell in vitro panel. The experiment in a line: NCI 60-cell in vitro panel, mean panel. In kind it is cell-based, human. Particulars: Homo sapiens, 60 cell; average ±SEM from the 40 cell lines that yielded GI50 values for both 4a and 5.
Source text: as §1

In data set [17] the test system is NCI-H522. The experiment in a line: NCI 60-cell screen. Format: cell-based, human. Particulars: Homo sapiens, averaged, quadruplicate, upper limit 10^−5 M, read-out: negative log10 GI50 (converted).
For data set [18], the system named is Escherichia coli (ATCC 25922). The data set is described as follows: Antimicrobial disk diffusion. In kind it is cell-based.
For data set [19], the system named is Streptococcus pneumoniae (ATCC 6303). The experiment in a line: Antimicrobial disk diffusion. In kind it is cell-based. The settings on record: listed as 5.
Data set [20] concerns NCI-H460. The experiment in a line: NCI 60-cell screen. In kind it is cell-based, human. Particulars: Homo sapiens, averaged, quadruplicate, upper limit 10^−5 M, read-out: negative log10 GI50 (converted).
Data set [21] has as its system LOX IMVI. The data set is described as follows: NCI 60-cell screen. In kind it is cell-based, human. The settings on record: Homo sapiens, averaged, quadruplicate, upper limit 10^−5 M, read-out: negative log10 GI50 (converted).
Data set [22] relates to NCI-H226. The experiment in a line: NCI 60-cell screen. Format: cell-based, human. Particulars: Homo sapiens, averaged, quadruplicate, upper limit 10^−5 M, read-out: negative log10 GI50 (converted).

We go through one molecule from US6437128B1, “Cribrostatins 3-5” (Arizona Board of Regents, priority 2001, dated 2002).

As usually defined, the GI50 is the concentration giving 50% growth inhibition. By melting point is commonly meant the temperature, or range, at which the solid turns liquid.

Converted amounts (≈) assume the structure as drawn. Bounds are passed on as bounds.

As for `C/C=C(/C)C(=O)OC[C@H]1C2=C(C=C3[C@H]4c5c(O)c(OC)c(C)c(O)c5C(=O)[C@@H](C(=O)N31)N4C)C(=O)C(C)=C(OC)C2=O` [Cribrostatin 4, cribrostatin 4], the melting point was 190 to 192 °C (dec.). Also, the GI50 in data set [1] is 9.12 µM. For the same molecule, the GI50 in [2] is 3.8 µM. Further, the 50% growth inhibitory concentration (GI50) in data set [3] is 1.82 µM. The GI50 in data set [4] is over 10 mg/L. The molecule further came in with a GI50 in [5] of over 10 mg/L. The concentration for 50% growth inhibition (GI50) in [6] was 0.26 mg/L (≈ 0.449 µM). Besides, the GI50 in [7] was over 10 mg/L. In addition, in [8], the GI50 was determined as 3.6 mg/L (≈ 6.22 µM). Further, the GI50 in [9] worked out at 5.6 mg/L (≈ 9.68 µM). Besides, the concentration for 50% growth inhibition (GI50) in [10] was over 10 mg/L. In addition, in data set [11], the GI50 is over 10 mg/L. Also, in data set [12], the GI50 turned out to be 2.2 mg/L (≈ 3.8 µM). For the same molecule, the Minimum inhibitory concentration result in data set [13] is given as “* (No inhibition at 100 μg/disk)”. The GI50 in data set [14] was 2.69 µM. Besides, in data set [15], the GI50 was 8.13 µM. For the same molecule, in data set [16], growth was halved (GI50) at 5.01 µM. Moreover, the concentration for 50% growth inhibition (GI50) in data set [17] is 4.17 µM. Also, in [18], the Minimum inhibitory concentration entry was “* (No inhibition at 100 μg/disk)”. For the same molecule, the Minimum inhibitory concentration in data set [19] is 6.25-12.5 μg/disk. Moreover, in [20], the 50% growth inhibitory concentration (GI50) is 7.59 µM. The GI50 in data set [21] was 3.31 µM. For the same molecule, in data set [22], the GI50 is 7.94 µM.
